# Measured values taken from ChEMBL document CHEMBL1201862, “PubChem BioAssay data set” (2004).
# Active and inactive are the calls of the source.
# Columns and labels:
# [1] = viability of uninfected HEp-2 cells – cell-based, HTS, cytotoxicity control for RSV inhibitor project, dose response (AID 2410); assay type: functional; details: human respiratory syncytial virus
# Paired box protein Pax-8 = Paired box protein Pax-8 (Homo sapiens, UniProt Q06710); test: PAX8 transcriptional activity inhibition in RMG-I – RMG-I cells, luciferase, cherry-pick, dose response (AID 687027); assay type: functional, cell-based;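 note: luciferase reporter driven by Pax8 target thyroperoxidase promoter measured by SteadyGlo luminescence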
# Cytochrome P450 2C19 = Cytochrome P450 2C19 (Homo sapiens, UniProt P33261); test: Cytochrome panel assay with activity outcomes. Panel member name: p450-cyp2c19 Compounds with AC50 equal or less than 10 uM are considered active; assay type: functional
# [2] = system: Streptococcus sp. 'group A'; test: Streptococcus pyogenes SK(-)GAS viability under kanamycin – luminescence, BacTiterGlo, confirmation, counter-screen for streptokinase expression inhibitor project, dose response (AID 1900); assay type: functional, organism-based
# Streptokinase A = molecular target: T1, Streptokinase A (Streptococcus pyogenes serotype M1, UniProt P10520); test: viability-normalized secreted streptokinase activity reduction – plasminogen activation absorbance, OD405, dose response (AID 1914); assay type: functional, Streptococcus pyogenes M1 GAS;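 note: secreted streptokinase activity via plasminogen activation per viability signal from cell pellet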
# T1 sequence (P10520 whole entry): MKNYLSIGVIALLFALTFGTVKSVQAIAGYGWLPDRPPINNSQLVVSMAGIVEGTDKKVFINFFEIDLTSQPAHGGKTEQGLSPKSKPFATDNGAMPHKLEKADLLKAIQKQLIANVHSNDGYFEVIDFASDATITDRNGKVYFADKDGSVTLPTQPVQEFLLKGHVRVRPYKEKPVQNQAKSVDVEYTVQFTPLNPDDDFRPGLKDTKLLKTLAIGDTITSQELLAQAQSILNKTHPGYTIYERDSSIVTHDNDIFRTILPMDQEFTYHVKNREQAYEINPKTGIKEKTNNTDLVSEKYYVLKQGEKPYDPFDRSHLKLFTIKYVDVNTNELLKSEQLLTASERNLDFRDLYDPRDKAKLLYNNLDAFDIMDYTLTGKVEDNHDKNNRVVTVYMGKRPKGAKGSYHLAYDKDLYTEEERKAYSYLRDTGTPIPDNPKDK
# Streptococcus = test: GAS UMAA2166 growth inhibition – luminescence, BacTiterGlo, counter-screen for streptokinase expression inhibitor project, dose response (AID 1915); assay type: functional, organism-based;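 note: potency for reduction of bacterial viability or growth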
# [3] = molecular target: T2, Corticotropin-releasing factor receptor 2/Corticotropin-releasing factor-binding protein (Homo sapiens, UniProt P24387+Q13324); test: activators of CRF receptor 2 with binding protein – uHTS hits, confirmation (AID 602473); assay type: functional; details: read-out: EC50_Mean
# T2 sequence (Q13324 whole entry): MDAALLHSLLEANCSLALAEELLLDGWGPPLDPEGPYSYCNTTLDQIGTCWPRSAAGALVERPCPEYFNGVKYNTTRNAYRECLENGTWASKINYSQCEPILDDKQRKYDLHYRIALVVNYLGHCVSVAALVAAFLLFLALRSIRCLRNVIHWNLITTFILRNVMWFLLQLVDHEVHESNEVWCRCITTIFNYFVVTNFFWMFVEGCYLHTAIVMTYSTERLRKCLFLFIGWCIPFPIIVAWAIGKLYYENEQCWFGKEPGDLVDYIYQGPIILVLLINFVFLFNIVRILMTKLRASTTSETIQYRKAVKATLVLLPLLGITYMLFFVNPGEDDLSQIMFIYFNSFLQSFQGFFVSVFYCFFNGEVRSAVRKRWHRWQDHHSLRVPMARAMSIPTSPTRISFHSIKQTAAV
# T2 sequence (P24387 whole entry): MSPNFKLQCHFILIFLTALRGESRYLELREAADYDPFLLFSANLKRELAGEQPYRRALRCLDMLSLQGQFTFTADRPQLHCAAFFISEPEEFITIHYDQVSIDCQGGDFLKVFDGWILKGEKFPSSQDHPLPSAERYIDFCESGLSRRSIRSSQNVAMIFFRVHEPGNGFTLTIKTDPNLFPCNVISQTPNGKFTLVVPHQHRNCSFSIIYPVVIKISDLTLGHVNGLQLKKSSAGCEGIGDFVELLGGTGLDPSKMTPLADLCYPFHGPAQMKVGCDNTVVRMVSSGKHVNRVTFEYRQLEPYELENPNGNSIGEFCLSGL
# Cytochrome P450 3A4 = Cytochrome P450 3A4 (Homo sapiens, UniProt P08684);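 note: CYP3A4 tested as one member of a cytochrome P450 panel screen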
# Cytochrome P450 1A2 = molecular target: T3, Cytochrome P450 1A2 (Homo sapiens, UniProt P05177);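 note: PubChem cytochrome P450 panel assay, CYP1A2 panel member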
# T3 sequence (P05177 whole entry): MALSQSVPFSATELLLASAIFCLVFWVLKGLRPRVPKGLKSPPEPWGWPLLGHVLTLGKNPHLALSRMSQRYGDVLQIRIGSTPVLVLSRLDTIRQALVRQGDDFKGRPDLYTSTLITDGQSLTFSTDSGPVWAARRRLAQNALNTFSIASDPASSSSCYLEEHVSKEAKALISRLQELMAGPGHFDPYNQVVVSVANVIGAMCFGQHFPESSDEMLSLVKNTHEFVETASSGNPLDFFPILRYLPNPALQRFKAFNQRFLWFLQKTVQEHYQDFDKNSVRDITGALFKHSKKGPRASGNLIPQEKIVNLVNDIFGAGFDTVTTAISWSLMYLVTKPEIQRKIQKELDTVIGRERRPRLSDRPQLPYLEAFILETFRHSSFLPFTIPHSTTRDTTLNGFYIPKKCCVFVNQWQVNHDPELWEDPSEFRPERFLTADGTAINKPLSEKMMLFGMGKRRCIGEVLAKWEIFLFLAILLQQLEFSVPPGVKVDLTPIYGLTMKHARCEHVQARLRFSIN
# Cytochrome P450 2C9 = Cytochrome P450 2C9 (Homo sapiens, UniProt P11712)
# [4] = Luminescence Cell-Based Dose Retest to Confirm Inhibitors of Cancer Stem Cells. [Related pubchem assays (depositor defined):AID2717, AID2721]; assay type: functional; details: Homo sapiens
# [5] = Trypanosoma cruzi growth suppression in host cells – NIH3T3 host cells, beta-gal luminescence, confirmation (AID 2044); assay type: functional, cell-based;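 note: intracellular parasites grown in NIH/3T3 mouse fibroblasts as host cells; luminescent beta-galactosidase reporter signal from transgenic T. cruzi replicating inside host cells; inhibitors lower the luminescence signal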
# [6] = NIH3T3 cell viability loss – ATP luminescence, mouse fibroblasts, counter-screen, dose response (AID 2010); assay type: functional, cell-based;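 note: cells exposed to compound for about 90 hours before reading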
# [7] = reduction of Shn3 3'UTR-driven luciferase in osteoblasts – cell-based, Clone20 osteoblasts, firefly luciferase, cherry-picked, dose response (AID 624132); assay type: functional;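 note: firefly luciferase luminescence from reporter carrying the Shn3 3'UTR in osteoblasts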
# [8] = non-specific 3'UTR reporter inhibition in Clone20-Shn3RL – cell-based, Renilla luciferase, cherry-picked, counter-screen for Shn3 inhibitor project, dose response (AID 624133); assay type: functional
# Chain of Cytochrome P450 2C19 (P33261 whole entry): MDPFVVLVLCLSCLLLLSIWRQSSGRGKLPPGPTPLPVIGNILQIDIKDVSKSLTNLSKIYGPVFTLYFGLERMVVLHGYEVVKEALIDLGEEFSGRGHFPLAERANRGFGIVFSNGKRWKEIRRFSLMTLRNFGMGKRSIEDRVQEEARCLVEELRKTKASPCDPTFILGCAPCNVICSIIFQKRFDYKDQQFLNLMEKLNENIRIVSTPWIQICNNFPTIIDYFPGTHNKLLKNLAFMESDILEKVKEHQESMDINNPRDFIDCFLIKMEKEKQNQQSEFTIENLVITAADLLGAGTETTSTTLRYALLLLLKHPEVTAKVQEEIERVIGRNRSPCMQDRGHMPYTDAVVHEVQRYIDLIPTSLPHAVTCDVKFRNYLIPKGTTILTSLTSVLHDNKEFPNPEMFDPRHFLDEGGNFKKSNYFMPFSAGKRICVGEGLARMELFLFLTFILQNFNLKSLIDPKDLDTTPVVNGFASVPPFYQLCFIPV
# Chain of Cytochrome P450 2C9 (P11712 whole entry): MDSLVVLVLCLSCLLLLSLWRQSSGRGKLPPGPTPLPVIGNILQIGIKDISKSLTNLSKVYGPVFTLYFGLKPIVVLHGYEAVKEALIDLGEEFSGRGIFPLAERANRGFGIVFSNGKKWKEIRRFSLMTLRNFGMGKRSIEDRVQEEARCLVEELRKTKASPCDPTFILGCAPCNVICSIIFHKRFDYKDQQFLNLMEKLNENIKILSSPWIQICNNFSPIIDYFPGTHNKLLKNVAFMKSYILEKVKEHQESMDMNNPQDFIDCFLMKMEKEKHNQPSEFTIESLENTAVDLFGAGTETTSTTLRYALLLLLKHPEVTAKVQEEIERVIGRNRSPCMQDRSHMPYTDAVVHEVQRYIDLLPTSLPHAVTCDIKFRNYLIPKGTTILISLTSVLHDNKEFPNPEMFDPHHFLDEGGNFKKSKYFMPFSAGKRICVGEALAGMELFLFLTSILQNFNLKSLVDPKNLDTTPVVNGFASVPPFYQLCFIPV
# Chain of Cytochrome P450 3A4 (P08684 whole entry): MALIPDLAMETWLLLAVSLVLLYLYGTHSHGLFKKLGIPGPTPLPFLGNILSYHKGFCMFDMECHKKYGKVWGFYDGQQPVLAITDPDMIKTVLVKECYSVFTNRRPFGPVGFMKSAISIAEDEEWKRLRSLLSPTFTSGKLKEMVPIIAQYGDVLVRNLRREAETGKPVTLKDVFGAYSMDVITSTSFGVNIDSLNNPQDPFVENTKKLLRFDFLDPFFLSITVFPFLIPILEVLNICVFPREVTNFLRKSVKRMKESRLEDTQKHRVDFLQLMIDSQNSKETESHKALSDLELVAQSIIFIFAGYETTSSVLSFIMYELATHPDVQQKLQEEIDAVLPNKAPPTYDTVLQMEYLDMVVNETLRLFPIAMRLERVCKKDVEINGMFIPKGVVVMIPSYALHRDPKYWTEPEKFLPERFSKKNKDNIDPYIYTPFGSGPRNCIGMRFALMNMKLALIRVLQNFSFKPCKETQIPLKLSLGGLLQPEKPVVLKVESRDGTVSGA
# Chain of Paired box protein Pax-8 (Q06710 whole entry): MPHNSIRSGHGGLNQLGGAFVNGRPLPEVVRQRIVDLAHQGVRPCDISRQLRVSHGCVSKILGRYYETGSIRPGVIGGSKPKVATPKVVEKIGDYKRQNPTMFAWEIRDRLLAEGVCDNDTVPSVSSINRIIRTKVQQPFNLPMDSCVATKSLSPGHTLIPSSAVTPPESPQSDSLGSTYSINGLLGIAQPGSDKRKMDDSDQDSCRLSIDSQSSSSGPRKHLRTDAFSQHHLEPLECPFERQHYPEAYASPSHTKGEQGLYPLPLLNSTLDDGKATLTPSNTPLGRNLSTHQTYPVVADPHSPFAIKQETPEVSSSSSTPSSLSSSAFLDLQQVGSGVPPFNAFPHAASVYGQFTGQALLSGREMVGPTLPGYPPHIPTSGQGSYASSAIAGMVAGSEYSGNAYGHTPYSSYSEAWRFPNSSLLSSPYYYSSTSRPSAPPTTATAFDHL
smiles,measurement,setting,value
COc1ccc(-c2nn(-c3ccccc3)cc2/C=N/NS(=O)(=O)c2ccccc2)cc1,CC50,[1],17.8 µM (active)
C[C@@H]1CN([C@H](C)CO)C(=O)c2cc(NC(=O)Nc3ccc(C(F)(F)F)cc3)ccc2O[C@@H](C)CCCCO[C@H]1CN(C)S(=O)(=O)c1ccc(F)cc1,AC50,Paired box protein Pax-8,6.53 µM (active)
CCCCn1cnc2c(cnn2-c2ccc(F)cc2)c1=O,AC50,Cytochrome P450 2C19; read-out: AC50,2.51 µM (inconclusive)
Cc1ccc(CN2CC(C(=O)Nc3nnc(SCc4c(Cl)cccc4Cl)s3)CC2=O)cc1 (stereo not given),EC50,[2],4.07 µM (active)
same,EC50,Streptokinase A,5.57 µM (active)
same,EC50,Streptococcus,37.2 µM (active)
COc1ccc(NP(=O)(Oc2ccc(Cl)cc2)Oc2ccc(Cl)cc2)cc1OC,EC50,[2],12.4 µM (active)
same,EC50,Streptokinase A,21.1 µM (active)
same,EC50,Streptococcus,16.3 µM (active)
CCCCCCNC(=O)C(C#N)c1nc2ccccc2nc1N1CCCC1 (stereo not given),EC50,[3],5.12 µM (active)
N#CC1(c2ccc(NC(=O)c3ccccc3F)cc2)CCCC1,CC50,[1],> 50 µM (active)
CN(Cc1ccco1)c1ccnc(-c2ccoc2)n1,AC50,Cytochrome P450 2C19; read-out: AC50,25.1 µM (inconclusive)
CCOC(=O)CSc1nnc(Cc2cc(O)nc(O)n2)n1-c1cccc(OC)c1,AC50,Cytochrome P450 2C19,inconclusive
same,AC50,Cytochrome P450 3A4,22.4 µM (inconclusive)
CCCCC1=NN2C(=N)CC(=O)N=C2S1,AC50,Cytochrome P450 1A2,25.1 µM (inconclusive)
same,AC50,Cytochrome P450 2C9,2.51 µM (inconclusive)
O=C(c1ccco1)N1CCC2(CCCN(c3ccccn3)C2)CC1,AC50,Cytochrome P450 1A2,10 µM (inconclusive)
same,AC50,Cytochrome P450 3A4,15.8 µM (inconclusive)
Cc1csc(NC(=O)c2c(O)c3c(n(CC(C)C)c2=O)CCCC3)n1,EC50,[2],11 µM (active)
same,EC50,Streptokinase A,> 150 µM (not active)
same,EC50,Streptococcus,17.3 µM (active)
Cc1cccc(OC2(c3ccccc3)OC(=O)c3ccccc32)c1C (stereo not given),AC50,Cytochrome P450 1A2,14.1 µM (inconclusive)
same,AC50,Cytochrome P450 3A4,28.2 µM (inconclusive)
O=C(Nc1cccc2ncccc12)c1cccc(F)c1,AC50,Cytochrome P450 1A2,15.8 µM (inconclusive)
same,AC50,Cytochrome P450 3A4,22.4 µM (inconclusive)
CCc1nc2c3cnn(-c4cc(Cl)ccc4C)c3ncn2n1,EC50,[2],> 150 µM (not active)
same,EC50,Streptokinase A,> 150 µM (not active)
same,EC50,Streptococcus,> 150 µM (not active)
COC(=O)N1CCC2(CCCN(c3ccncc3)C2)CC1,AC50,Cytochrome P450 2C19,inconclusive
CN(Cc1cc(Br)cc(Br)c1O)Cc1c(O)ccc2ccccc12,AC50,Cytochrome P450 1A2,1.26 µM (inconclusive)
same,AC50,Cytochrome P450 3A4,3.98 µM (inconclusive)
same,AC50,Cytochrome P450 2C9,3.16 µM (inconclusive)
CC1CCCCN1c1cc(C#N)c(C#N)cc1[N+](=O)[O-] (stereo not given),AC50,[4],0.174 µM (active)
same,AC50,Cytochrome P450 1A2,3.16 µM (inconclusive)
same,AC50,Cytochrome P450 3A4,15.8 µM (inconclusive)
same,AC50,Cytochrome P450 2C9,5.01 µM (inconclusive)
COc1ccc(-n2c(=O)c(C)nc3cnc(Nc4ccccc4)nc32)cc1,AC50,Cytochrome P450 1A2,5.01 µM (inconclusive)
same,AC50,Cytochrome P450 2C9,20 µM (inconclusive)
COCCNC(=O)C(c1ccc(C)o1)N(CC1CCCO1)C(=O)Cn1nnc2ccccc21 (stereo not given),AC50,Cytochrome P450 2C19,inconclusive
same,AC50,Cytochrome P450 1A2,12.6 µM (inconclusive)
same,AC50,Cytochrome P450 3A4,15.8 µM (inconclusive)
O=C(Nc1ccc(N2CCCCC2)c(Cl)c1)c1nc[nH]n1,CC50,[1],16.6 µM (active)
COc1cc(OC)cc(C(=O)Nc2nnc(N=C(S)Nc3ccccc3)s2)c1,CC50,[1],8.31 µM (active)
same,EC50,[2],9.71 µM (active)
same,EC50,Streptococcus,30.7 µM (active)
N=c1c(-c2nc3ccccc3[nH]2)cc(C(=O)c2cccs2)nn1-c1ccccc1,CC50,[1],15.3 µM (active)
same,EC50,[2],1.51 µM (active)
same,EC50,[5],0.39 µM (active)
same,EC50,[6],> 60 µM (not active)
same,EC50,Streptococcus,5.63 µM (active)
COc1ccccc1N1CCN(C(=O)c2sc3ncnc(N4CCN(c5ccccn5)CC4)c3c2C)CC1,CC50,[1],12.2 µM (active)
Cc1nnc(-c2cnn(-c3ccccc3)c2N)n1Cc1ccncc1,AC50,Cytochrome P450 2C19; read-out: AC50,11.2 µM (inconclusive)
same,AC50,Cytochrome P450 1A2,11.2 µM (inconclusive)
same,AC50,Cytochrome P450 3A4,15.8 µM (inconclusive)
CCc1ccccc1S(=O)(=O)Cc1ccc(C(=O)N2CCN(c3ccccc3OC)CC2)o1,CC50,[1],> 50 µM (active)
COCCCNC(=S)NNC(=S)Nc1cccc(Cl)c1,EC50,Streptokinase A,> 150 µM (not active)
CCCCCCCCCc1nc2sc3c(c2c(=O)n1NC(=O)c1ccc([N+](=O)[O-])cc1)CC(C)(C)OC3,EC50,[2],3.71 µM (active)
same,EC50,Streptokinase A,2.17 µM (active)
same,EC50,Streptococcus,39.8 µM (active)
C/C(N)=C(/C#N)C(=O)CSc1nnc(COc2cc(C)ccc2C)o1,AC50,Cytochrome P450 1A2,4.47 µM (inconclusive)
same,AC50,Cytochrome P450 2C9,7.08 µM (inconclusive)
O=C1NN=C(c2ccc(Cl)cc2)CC1c1cccc(Cl)c1 (stereo not given),CC50,[1],30.2 µM (active)
CCCCCn1c(SCc2ccncc2)nc2cc(C(=O)NCc3ccco3)ccc2c1=O,CC50,[1],48.3 µM (active)
Cc1ccc(NC(S)=NCc2ccc3[nH]c4c(c3c2)CCCC4)cc1,CC50,[1],9.29 µM (active)
CCCn1nc(Oc2nc(NCC)nc(NCC)n2)ccc1=O,AC50,Cytochrome P450 2C19; read-out: AC50,31.6 µM (inconclusive)
same,AC50,Cytochrome P450 1A2,15.8 µM (inconclusive)
CN(Cc1c(F)cccc1Cl)C(=O)CCc1c[nH]c2ccccc12,CC50,[1],30 µM (active)
Cn1c(SCc2ccccc2Cl)nc2c1c(=O)[nH]c(=O)n2C,CC50,[1],> 50 µM (active)
CC12CC(O)C3c4ccc(O)cc4CCC3C1CCC2=O (stereo not given),AC50,[7],> 70 µM (inactive)
same,AC50,[8],26.8 µM (active)
CCC(C)Nc1nc(OCC(F)(F)F)nc(OCC(F)(F)F)n1 (stereo not given),AC50,Cytochrome P450 2C19; read-out: AC50,3.16 µM (inconclusive)
COC(=O)c1c(-c2ccc(C)cc2)csc1NC(=O)c1c(-c2ccccc2)noc1C,CC50,[1],26.5 µM (active)
COc1cc(OC)cc(C(=O)Nc2nnc(NC(=S)Nc3ccccc3)s2)c1,EC50,Streptokinase A,> 150 µM (not active)
O=C(O)/C=C\c1ccc(Cn2ccnc2)cc1,AC50,Cytochrome P450 1A2,12.6 µM (inconclusive)
Cc1cccc(NC(=NS(=O)(=O)c2ccccc2)C(F)(F)F)c1,AC50,Cytochrome P450 2C19; read-out: AC50,22.4 µM (inconclusive)
same,AC50,Cytochrome P450 3A4,25.1 µM (inconclusive)
COCCn1c(=O)c(-c2ccc(F)cc2)nc2cnc(Nc3cccc(OC)c3)nc21,AC50,Cytochrome P450 1A2,3.16 µM (inconclusive)
C[C@@H](CN1CCC(Cc2ccccc2)CC1)[C@H](O)c1ccc(O)cc1,AC50,Cytochrome P450 1A2,12.6 µM (inconclusive)
C[C@@H]1CCCCO[C@H](CN(C)C(=O)C2CCCCC2)[C@@H](C)CN([C@@H](C)CO)C(=O)c2cc(NC(=O)Nc3ccccc3)ccc2O1,AC50,Paired box protein Pax-8,5.39 µM (active)
CCC1(c2ccc(F)cc2)NC(=O)N(CC(=O)N2CCc3ccccc32)C1=O (stereo not given),EC50,[3],11 µM (active)
